Results: PubChem BioAssay (NCI)
“And” between values parts separate entries of the source, which are not always exact repeats. Identical values can stand only once.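 Cultured in 96-well plates, cells were exposed to test compound for 48 hours across five concentrations. The concentration for 50% growth inhibition is given as GI50. TGI denotes the concentration required for complete inhibition of growth.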

Tests used:
Assay in all cases: NCI anticancer screen, dose series, 48 h
SF-268 CNS = tested on: SF-268 CNS
MCF7 breast = tested on: MCF7 breast
M14 melanoma = tested on: M14 melanoma
MDA-MB-231 breast = tested on: MDA-MB-231 breast
UACC-257 melanoma = tested on: UACC-257 melanoma
OVCAR-8 ovarian = tested on: OVCAR-8 ovarian
SF-539 CNS = tested on: SF-539 CNS
EKVX NSCLC = tested on: EKVX NSCLC
K-562 leukemia = tested on: K-562 leukemia
HT29 colon = tested on: HT29 colon

Compound	GI50 (SF-268 CNS)	TGI (SF-268 CNS)	GI50 (MCF7 breast)	TGI (MCF7 breast)	GI50 (M14 melanoma)	TGI (M14 melanoma)	GI50 (MDA-MB-231 breast)	TGI (MDA-MB-231 breast)	GI50 (UACC-257 melanoma)	TGI (UACC-257 melanoma)	GI50 (OVCAR-8 ovarian)	TGI (OVCAR-8 ovarian)	GI50 (SF-539 CNS)	TGI (SF-539 CNS)	GI50 (EKVX NSCLC)	TGI (EKVX NSCLC)	GI50 (K-562 leukemia)	TGI (K-562 leukemia)	GI50 (HT29 colon)	TGI (HT29 colon)
Nc1ccc(-c2nc3ccc4[nH]ncc4c3c3c2CCCC3)cc1F	1760 nM	19200 nM	1090 nM	8920 nM	686 nM	6920 nM	1710 nM	30500 nM	1920 nM	10700 nM	1570 nM	21600 nM	1380 nM	5850 nM	215 nM	3920 nM	1980 nM	22800 nM	1530 nM	18500 nM
O=C(O)c1c(O)c2cc(Br)ccc2oc1=O		> 100000 nM		> 100000 nM		> 100000 nM		> 100000 nM		> 100000 nM		> 100000 nM		> 100000 nM		> 100000 nM		> 100000 nM		> 100000 nM
O=C1NC(=O)/C(=C/C=C/c2ccccc2)S1	2960 nM	> 70200 nM	1360 nM	> 100000 nM	2100 nM	> 20600 nM	30400 nM	> 100000 nM	5430 nM	> 100000 nM	3480 nM	> 100000 nM	384 nM	3160 nM	6100 nM	> 100000 nM	3270 nM	> 100000 nM	12100 nM	> 100000 nM
CC1(C)N=C(N)N=C(N)N1c1cccc(C#N)c1	692 nM	> 100000 nM	3850 nM	> 100000 nM	696 nM	> 100000 nM	> 100000 nM	> 100000 nM	11700 nM	> 100000 nM	599 nM	> 100000 nM	3740 nM	> 100000 nM	1090 nM	> 100000 nM	293 nM	> 100000 nM	933 nM	> 100000 nM
C[C@]12O[C@H](C[C@]1(O)CO)n1c3ccccc3c3c4c(c5c6ccccc6n2c5c31)CNC4=O	209 nM and 222 nM	2560 nM and 2860 nM	77.4 nM and 60.5 nM	3410 nM and 1920 nM	15.9 nM and 29.7 nM	492 nM and 1970 nM	126 nM and 151 nM	2820 nM and 3000 nM	250 nM and 366 nM	2570 nM and 2460 nM	367 nM and 391 nM	> 5350 nM and 6530 nM	114 nM and 84.6 nM	889 nM and 540 nM	1560 nM	> 9150 nM		> 100000 nM	166 nM and 138 nM	3350 nM and 1380 nM
O=C(NCc1cccnc1)/C(=C\c1ccc(Br)cc1)S(=O)(=O)c1ccccc1	1000 nM	2820 nM	409 nM	2110 nM	1040 nM	2860 nM	705 nM	2100 nM	1250 nM	2680 nM	705 nM	3330 nM	663 nM	1610 nM	1300 nM	2610 nM	423 nM	13000 nM	514 nM	3920 nM
